In patent publication US7214690B2, “Tricyclic quinolinone and tricyclic quinoline androgen receptor modulator compounds and methods” (Ligand Pharmaceuticals Incorporated, priority 2001, dated 2007):
Like-named read-outs stand apart in the source and are kept apart here.

Legend:
human AR = molecular target: T1, human AR (Homo sapiens, UniProt P10275); assay: co-transfection assay, hAR in CV-1 cells (MTV-LUC reporter); assay type: cell-based; conditions: for AR Agonist CV-1 Cells Efficacy: agonist mode, luciferase production relative to DHT; for AR Agonist CV-1 Cells Efficacy / AR Antagonist CV-1 Cells Efficacy: hAR in CV-1 cells; for AR Antagonist CV-1 Cells Efficacy: antagonist mode, maximal inhibition of DHT-induced luciferase production
T1 construct: expressed in transfected cells; host or cells: CV-1 cells (African green monkey kidney fibroblasts)
T1 sequence (P10275 1-920): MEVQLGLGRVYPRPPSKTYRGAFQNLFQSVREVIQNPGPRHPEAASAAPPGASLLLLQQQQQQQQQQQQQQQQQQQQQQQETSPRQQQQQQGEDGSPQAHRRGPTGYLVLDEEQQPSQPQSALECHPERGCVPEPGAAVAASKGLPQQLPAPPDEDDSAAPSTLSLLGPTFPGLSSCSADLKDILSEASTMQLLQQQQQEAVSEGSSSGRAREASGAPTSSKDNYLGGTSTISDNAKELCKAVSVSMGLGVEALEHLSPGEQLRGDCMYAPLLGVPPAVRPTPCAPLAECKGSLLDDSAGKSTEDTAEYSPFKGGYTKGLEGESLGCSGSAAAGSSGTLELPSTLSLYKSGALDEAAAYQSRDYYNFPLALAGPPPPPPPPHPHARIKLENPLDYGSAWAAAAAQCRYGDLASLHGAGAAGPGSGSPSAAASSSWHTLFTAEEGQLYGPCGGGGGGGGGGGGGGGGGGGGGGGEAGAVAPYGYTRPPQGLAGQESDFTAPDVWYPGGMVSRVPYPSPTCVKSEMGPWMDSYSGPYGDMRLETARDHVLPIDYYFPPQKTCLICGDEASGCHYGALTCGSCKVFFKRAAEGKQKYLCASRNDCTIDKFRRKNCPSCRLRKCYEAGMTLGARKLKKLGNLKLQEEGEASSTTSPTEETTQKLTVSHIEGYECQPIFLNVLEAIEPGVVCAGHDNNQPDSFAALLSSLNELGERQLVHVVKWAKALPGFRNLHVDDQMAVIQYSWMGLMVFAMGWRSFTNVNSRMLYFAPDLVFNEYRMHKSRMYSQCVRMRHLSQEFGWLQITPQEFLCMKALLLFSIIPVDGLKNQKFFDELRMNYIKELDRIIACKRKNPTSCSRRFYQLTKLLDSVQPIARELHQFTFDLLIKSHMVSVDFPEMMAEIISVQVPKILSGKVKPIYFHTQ
Source text: The co-transfection assay provides a method for identifying functional agonists and partial agonists that mimic, or antagonists that inhibit, the effect of native hormones and quantifying their activity for responsive IR proteins. In this regard, the co-transfection assay mimics an in vivo system in the laboratory. Importantly, activity in the co-transfection assay correlates very well with known in vivo activity, such that the co-transfection assay functions as a qualitative and quantitative predictor of a tested compounds in vivo pharmacology. , See e.g., T. Berger et al. 41 J. Steroid Biochem. Molec.
(§1) CV-1 cells (African green monkey kidney fibroblasts) were cultured in the presence of Dulbecco's Modified Eagle Medium (DMEM) supplemented with 10% charcoal resin-stripped fetal bovine serum (CH-FBS) then transferred to 96-well microtiter plates one day prior to transfection.
The reporter plasmid, MTV-LUC, contains the cDNA for firefly luciferase (LUC) under control of the mouse mammary tumor virus (MTV) long terminal repeat, a conditional promoter containing an androgen response element. See e.g., Berger et al. supra. In addition, pRS-β-Gal, coding for constitutive expression of E. coli β-galactosidase (β-Gal), was included as an internal control for evaluation of transfection efficiency and compound toxicity.
(§2) Three to four replicates were used for each sample.
(§3) After 40 hours, the cells were washed with PBS, lysed with a Triton X-100-based buffer and assayed for LUC and β-Gal activities using a luminometer or spectrophotometer, respectively. For each replicate, the normalized response (NR) was calculated as: LUC response/β-Gal rate • where β-Gal rate=β-Gal/β-Gal incubation time.

ER = molecular target: T2, ER (Homo sapiens, UniProt P03372); assay: co-transfection assay, ER; assay type: cell-based
T2 construct: expressed in transfected cells; host or cells: background cell substantially devoid of endogenous IRs (CV-1 described for the co-transfection assay)
T2 sequence (P03372 1-595): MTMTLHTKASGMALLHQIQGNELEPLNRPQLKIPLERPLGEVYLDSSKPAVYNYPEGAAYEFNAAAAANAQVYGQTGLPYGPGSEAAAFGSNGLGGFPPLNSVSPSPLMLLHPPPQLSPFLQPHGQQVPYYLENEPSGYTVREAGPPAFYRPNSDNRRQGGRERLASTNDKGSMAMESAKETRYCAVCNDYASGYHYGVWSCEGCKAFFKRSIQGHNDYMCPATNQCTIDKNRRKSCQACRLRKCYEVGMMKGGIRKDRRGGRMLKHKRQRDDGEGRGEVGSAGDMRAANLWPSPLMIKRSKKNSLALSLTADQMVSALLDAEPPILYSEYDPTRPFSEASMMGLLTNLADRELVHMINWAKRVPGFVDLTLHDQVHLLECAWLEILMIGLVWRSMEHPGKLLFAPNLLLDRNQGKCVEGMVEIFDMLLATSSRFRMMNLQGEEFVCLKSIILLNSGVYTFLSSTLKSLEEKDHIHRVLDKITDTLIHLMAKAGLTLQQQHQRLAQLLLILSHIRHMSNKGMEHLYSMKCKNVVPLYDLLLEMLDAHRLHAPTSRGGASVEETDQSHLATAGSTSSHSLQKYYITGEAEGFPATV
Experimental: as §1, §2, §3

C[C@@H]1COc2c(ccc3[nH]c(=O)cc(C(F)(F)F)c23)N1C [Compound 102, (3R)-2,3,4,7-Tetrahydro-3,4-dimethyl-10-(trifluoromethyl)-8H-[1,4]oxazino[2,3-f]quinolin-8-one]
EC50 (human AR): > 10000 nM
AR Agonist CV-1 Cells Efficacy (human AR): na (not active (i.e. efficacy of <20 and potency of >10,000 nM for the cotransfection assay)
AR Antagonist CV-1 Cells Efficacy (human AR): 32%

C[C@@H]1Oc2c(ccc3[nH]c(=O)cc(C(F)(F)F)c23)N(CC(F)(F)F)[C@@H]1C (racemic) [Compound 136, (±)-(2S,3R)-2,3,4,7-Tetrahydro-2,3-dimethyl-4-(2,2,2-trifluoroethyl)-10-(trifluoromethyl)-8H-[1,4]oxazino[2,3-f]quinolin-8-one]
EC50 (human AR): 34 nM
AR Agonist CV-1 Cells Efficacy (human AR): 61%
AR Antagonist CV-1 Cells Efficacy (human AR): 24%

CC[C@@H]1COc2c(ccc3[nH]c(=O)cc(C(F)(F)F)c23)N1CC [Compound 109, (3R)-3,4-Diethyl-2,3,4,7-tetrahydro-10-(trifluoromethyl)-8H-[1,4]oxazino[2,3-f]quinolin-8-one]
EC50 (human AR): 411 nM
AR Agonist CV-1 Cells Efficacy (human AR): 29%
AR Antagonist CV-1 Cells Efficacy (human AR): na (not active (i.e. efficacy of <20 and potency of >10,000 nM for the cotransfection assay)

C[C@@H]1COc2c(ccc3[nH]c(=O)cc(C(F)(F)F)c23)N1CC(F)(F)F [Compound 104, (3R)-2,3,4,7-Tetrahydro-3-methyl-4-(2,2,2-trifluoroethyl)-10-(trifluoromethyl)-8H-[1,4]oxazino[2,3-f]quinolin-8-one]
EC50 (human AR): 7 nM
AR Agonist CV-1 Cells Efficacy (human AR): 73%
AR Antagonist CV-1 Cells Efficacy (human AR): na (not active (i.e. efficacy of <20 and potency of >10,000 nM for the cotransfection assay)

C=CCN1c2ccc3[nH]c(=O)cc(C(F)(F)F)c3c2OC[C@H]1C(C)C [Compound 126, (3R)-4-Allyl-2,3,4,7-tetrahydro-3-isopropyl-10-(trifluoromethyl)-8H-[1,4]oxazino[2,3-f]quinolin-8-one]
EC50 (human AR): 35 nM

CCN1c2ccc3[nH]c(=O)cc(C(F)(F)F)c3c2OC[C@H]1C(C)C [Compound 122, (3R)-4-Ethyl-2,3,4,7-tetrahydro-3-isopropyl-10-(trifluoromethyl)-8H-[1,4]oxazino[2,3-f]quinolin-8-one]
EC50 (human AR): 270 nM
AR Agonist CV-1 Cells Efficacy (human AR): 76%
AR Antagonist CV-1 Cells Efficacy (human AR): na (not active (i.e. efficacy of <20 and potency of >10,000 nM for the cotransfection assay)

CC[C@@H]1COc2c(ccc3[nH]c(=O)cc(C(F)(F)F)c23)N1 [Compound 107, (3R)-3-Ethyl-2,3,4,7-tetrahydro-10-(trifluoromethyl)-8H-[1,4]oxazino[2,3-f]quinolin-8-one]
EC50 (human AR): 301 nM
AR Agonist CV-1 Cells Efficacy (human AR): 17%
AR Antagonist CV-1 Cells Efficacy (human AR): 56%

CCCC1COc2c(ccc3[nH]c(=O)cc(C(F)(F)F)c23)N1 (racemic) [Compound 116, (±)-2,3,4,7-Tetrahydro-3-propyl-10-(trifluoromethyl)-8H-[1,4]oxazino[2,3-f]quinolin-8-one]
EC50 (human AR): > 10000 nM
AR Agonist CV-1 Cells Efficacy (human AR): na (not active (i.e. efficacy of <20 and potency of >10,000 nM for the cotransfection assay)
AR Antagonist CV-1 Cells Efficacy (human AR): 79%

CCCC1COc2c(ccc3[nH]c(=O)cc(C(F)(F)F)c23)N1C (racemic) [Compound 117, (±)-2,3,4,7-Tetrahydro-4-methyl-3-propyl-10-(trifluoromethyl)-8H-[1,4]oxazino[2,3-f]quinolin-8-one]
EC50 (human AR): > 10000 nM
AR Agonist CV-1 Cells Efficacy (human AR): na (not active (i.e. efficacy of <20 and potency of >10,000 nM for the cotransfection assay)
AR Antagonist CV-1 Cells Efficacy (human AR): 74%

CC(=O)S[C@@H]1CC2=CC(=O)CC[C@]2(C)[C@H]2CC[C@@]3(C)[C@@H](CC[C@@]34CCC(=O)O4)[C@H]12 [Spir, spironolactone, reference compound]
EC50 (ER): > 10000 nM
IC50 (ER): > 10000 nM

CN1CC(C)(C)Oc2c1ccc1[nH]c(=O)cc(C(F)(F)F)c21 [Compound 138, 2,3,4,7-Tetrahydro-2,2,4-trimethyl-10-(trifluoromethyl)-8H-[1,4]oxazino[2,3-f]quinolin-8-one]
EC50 (human AR): > 10000 nM
AR Agonist CV-1 Cells Efficacy (human AR): na (not active (i.e. efficacy of <20 and potency of >10,000 nM for the cotransfection assay)
AR Antagonist CV-1 Cells Efficacy (human AR): 90%

CC(C)(O)C(=O)Nc1ccc([N+](=O)[O-])c(C(F)(F)F)c1 [Flut, 2-hydroxyflutamide, reference compound]
EC50 (ER; agonist mode, read-out: ER Potency Agon): > 10000 nM
IC50 (ER; antagonist mode, read-out: ER Potency Antag): > 10000 nM
